Data as given in patent US20250346943A1, “DEGRADER COMPOUNDS OF QSOX1 mRNA” (UNIVERSITY OF FLORIDA RESEARCH FOUNDATION, INCORPORATED, priority 2022, published 2025).

What was measured:
QSOX1-a mRNA = QSOX1-a mRNA abundance in RNase L-knockdown (CRISPR-edited) MDA-MB-231 cells; format: cell-based, human; settings: CRISPR-edited cells with RNase L knockdown
Method: The CRISPR-edited MDA-MB-231 cell lines used in this study were the same as those previously reported and characterized.^8 Briefly, lentiviral constructs containing Cas9 and gRNA targeting RNase L mRNA (or a scramble control) were purchased (Transomic Tech) and transfected in HEK293T cells (ATCC CRL-11268) to harvest virus. Transduction to MDA-MB-231 cells were performed in the presence of […] polybrene (Millipore, Cat #TR-1003-G) followed by selection with puromycin.
Analysis of mRNA Abundance by RT-qPCR. Unless stated otherwise, all RT-qPCR experiments were performed to measure nascent RNA levels by using Click-it Nascent RNA Capture Kit (Cat #C10365, Thermo Fisher) per the manufacturer's protocols. Briefly, cells were treated with 0.2 mM of ethynyl uridine (EU) in growth medium for 16 h, after which the medium was replaced with fresh growth medium lacking EU. Compound or ASO treatment was performed at the same time of initial EU treatment, and compounds were replenished after replacing the medium to remove EU. Total RNA was extracted by using a Zymo Quick-RNA Miniprep Kit as per manufacturer's protocol with DNase treatment. The click reaction and pull-down of nascent RNA were performed as described in “In Vitro Chemical-Crosslinking and Isolation by Pull-down (Chem-CLIP) with Fluorescently Labeled RNA”. […]

MDA-MB-231 cells = test: Proliferation assay; format: cell-based, human; settings: 48 h treatment
Method: Proliferation Assay. MDA-MB-231 cells were seeded in 96-well plates (Corning) at ˜40% confluency and treated with compound or transfected with ASO as described in Cell Culture. Compound was replenished every 16 h by replacing all the growth medium with freshly prepared medium containing same concentration of compounds. After 48 h total treatment period, proliferation was measured by using CellTiter 96 AQueous One Solution Cell Proliferation Assay (Cat #G3582, Promega) per manufacturer's protocol.

MDA-MB-231 TBNC cells = test: Viability of MDA-MB-231 cells; format: cell-based, human; design: dose or concentration left out as unconfirmed; settings: the highest dose
[1] = tested on: DNA and proteins in MDA-MB-231 cells; test: Cross-linking to RNA, DNA and proteins in live cells with clickable TAMRA azide; format: cell-based, human; settings: 16 h, TAMRA imaging
Method: Cross-linking to RNA, DNA, and Proteins in Live Cells with Clickable TAMRA Azide. MDA-MB-231 cells were seeded in 100 mm dishes and allowed to reach ˜80% confluency. The cells were then treated with […] of compound in growth medium and incubated for 16 h. Cells were washed with 1×DPBS and irradiated with UV light for 10 min. Total RNA was harvested using a Zymo Quick-RNA Miniprep Kit per the manufacturer's protocol with DNase and proteinase treatment. Total DNA was harvested using a Zymo Quick-DNA Miniprep Kit per the manufacturer's protocol with RNase and proteinase treatment. Total protein was harvested by using Mammalian Protein Extraction Reagent (M-PER, Thermo Scientific) per the manufacturer's protocol with RNase and DNase treatment. Each sample (4 μg for RNA or DNA, 25 μg for proteins) was then incubated in a “click reaction mixture” with TAMRA azide as described in In Vitro Screening of Functionalized Compounds with Clickable TAMRA Azide. DNA and RNA samples were separated by using a 1.0% (w/v) and 1.5% (w/v) agarose gel in TBE buffer, respectively. Protein samples were loaded to 10% SDS-polyacrylamide gel. All samples were first imaged with TAMRA channel by using a Typhoon FLA 9500 variable mode imager (GE Healthcare Life Sciences). […]

[2] = tested on: mutant RNA (U-bulge mutated to U/A base pair); test: Optical melting, mutant model RNA; format: binding
Method: Optical Melting Experiments. The thermal stability of WT and mutant model RNAs in the presence and absence of F1-Amide was measured by optical melting. The RNA ([…]) was prepared in 1× Melting Buffer (8 mM Na2HPO4, pH 7, 10 mM NaCl, and 1 mM EDTA) and heated to 95° C. followed by cooling on ice. F1-Amide was added to the final concentration of 2 mM; an equal volume of DMSO was added to the vehicle sample. The absorbance of the solution at 260 nm was measured by a Beckman Coulter DU800 spectrophotometer as a function of temperature, from 12° C. to 85° C. at a rate of 1° C./min. The background absorbance of buffer with DMSO or compound was subtracted before fitting the curve with MeltWin (v3.5)^7 to determine the melting temperature (Tm) and the Gibbs free energy (ΔG37° C.).

| SMILES | effect on QSOX1-a mRNA in RNase L-knockdown cells (QSOX1-a mRNA) | antiproliferative activity compared to F1-Amide delivered at twice the dose (MDA-MB-231 cells) | effect on proliferation of MDA-MB-231 cells (MDA-MB-231 cells) | effect on viability (MDA-MB-231 TBNC cells) | enrichment of protein or DNA targets compared to the control probe [1] | effect on Tm or ΔG37° C. of mutant RNA [2] |
| --- | --- | --- | --- | --- | --- | --- |
| CCOC(=O)C1=C(Nc2ccccc2)S/C(=C\c2ccc(OCCOCCOCCOCCNC(=O)CCC(=O)N(C)[C@H]3CC[C@@H](c4ccc(Cl)c(Cl)c4)c4ccccc43)c(O)c2)C1=O [Compound F1-RIBOTAC] | ablated | enhanced activity | dose-dependently reduced proliferation | no effect on viability | – | – |
| C#CCCC1(CCC(=O)N(C)[C@H]2CC[C@@H](c3ccc(Cl)c(Cl)c3)c3ccccc32)N=N1 [Compound F1] | – | – | – | – | No significant enrichment | No changes |
